Assay results as given in patent EP0231151A2, “Immunosuppressant agents” (priority 1986, dated 1987).

Tests used:
[1] = No toxic effect level (NTEL) / tolerability, repeated oral dosing in dogs; settings: dog, in vivo, p.o.
Text: (§1) Toxicity data for some of the comounds of the invention have been published. Such data may be determined by routine experimentation. TOXICITY DATA for representative compounds NTEL = No toxic effect level.

[2] = test system: lymphocyte responsiveness to allogenic stimulation; test: Mixed lymphocyte reaction test in mice, 1st variant (responder mice treated, ex vivo 3H thymidine incorporation); settings: 5 mg/kg s.c., five days
Method: The ability of the compounds of the invention to reduce lymphocyte responsiveness to allogenic stimulation is measured in the mixed lymphocyte reaction test (MLR) wherein irradiated allogenic cells from stimulator mice induce a proliferative response in responder histo-incompatible cells.
Responder mice (Balb/c female, 8-10 weeks old) are treated sub-cutaneously for five days with the compounds of the invention. Equal numbers of murine stimulator lymphocytes (from stimulator, CBA, mice; lymphocytes irradiated in vitro with 200 R) and effector lymphocytes from the treated animals or control animals are incubated for five days. The 3H thymidine incorporated into lymphocyte DNA was used as a parameter for cell proliferation in response to an allogenic stimulus. [See S.S.Rich et al, J.Exp.Medicine, (1974), 140, 1588-1693].

[3] = test system: Local graft versus host (GvH); test: Local graft versus host (GvH) reaction in the rat, lymph node weight; type: in vivo
Method: Spleen cells (ca 1 x 10⁷) are taken from 6 week old Wistar/Furth/(W/F) rats and are injected into the left hind paw of female (F 344 x WF) F1 rats weighing about 100 g. The rats had been treated daily with the compound from 7 days before the injection and are treated daily for 3 days thereafter. The difference in weight between the left and right lymph nodes is taken as the parameter for evaluating the reaction.

[4] = test system: basal serum prolactin levels; test: Lowering basal serum prolactin levels in the male rat (prolactin secretion inhibition); type: in vivo; settings: lowering basal serum prolactin levels, male rat, after 4 hours; read-out: ID50 after 4 hours
Text: Many of the above mentioned compounds are published as prolactin secretion inhibitors, some of which are extremely potent and have long lasting activity. The potency of the compounds as prolactin secretion inhibitors can be determined in standard tests, e.g. by lowering basal serum prolactin levels in the male rat.
Results with representative compounds include:-

[5] = test system: immuno-responsiveness of effector lymphocytes to histoincompatible (allogenic) lymphocytes; test: Mixed lymphocyte reaction test in mice, 2nd variant (both strains treated, ex vivo 3H-thymidine incorporation); settings: at least 7 days
Method: The compounds furthermore inhibit the immuno-responsiveness of effector lymphocytes to histoincompatible (allogenic) lymphocytes in a variante of the above two way MLR (mixed lymphocyte reaction) test.
Mice of two histo-incompatible strains (Balb/c and CBA) (6-8 weeks old) were once daily treated s.c. with a compound of the invention for at least 7 days. The spleens are removed 3 hours after the last drug administration. The MLR test is effected with 0.5 x 10⁶ spleen cells from Balb/c mice and 0.5 x 10⁶ spleen cells from CBA mice the latter having been irradiated with 2000 rad. The spleen cells of the Balb-c mice are incubated with the allogenic CBA-spleen cells for 4 days. Radioactive thymidine is added and after 16 hours the incorporation of ³H-thymidine in the DNA of the mouse spleen cells was measured.

[6] = Acute toxicity (LD50) in the mouse; settings: in vivo
Text: as §1

[7] = No toxic effect level (NTEL), repeated oral dosing in rats; settings: rat, in vivo, 4 weeks, p.o.
Text: as §1

[8] = target: 5-HT sensitive adenylate cyclase; test: Activation of 5-HT sensitive adenylate cyclase of the liver fluke (method of Markstein); type: biochemical; settings: adenylate cyclase stimulated by serotonin
Text: A group of compounds comprises compounds which are D₂ agonists without any antagonistic activity. Another group of compounds includes those compounds which are serotonin agonists, e.g. as indicated in standard in vitro binding tests and by activation of 5-HT sensitive adenylate cyclase of the liver fluke according to the method of R.Markstein, Neurochemical effects of some ergot derivatives: A basis for their antiparkinson actions. J.Neural transm 51:39, (1981).
Examples of such compounds include compound C and pergolide. Compound C, pergolide and 5-HT have efficacies of 90,80 and 100 respectively and pD₂ [log EC₅₀] of 6.9, 6.9 and 7.7 respectively in this test on adenylate cyclase stimulated by serotonin.

[9] = test system: ornithine decarboxylase (ODC); test: Biosynthetic rate in the rat: ornithine decarboxylase activity in tissues after Complete Freund's adjuvant; type: in vivo; settings: Freund's adjuvant treated rats
Method: The marker used in this study to determine the biosynthetic rate of the lymphoid and endocrine tissues was ornithine decarboxylase (ODC). ODC, the rate-limiting enzyme in polyamine biosynthesis, serves as a early marker of G₁ cell cycle progression of proliferating tissues and increased biosynthesis in secretory tissues, in response to trophic or stimulatory substances. There is a peak activity of ODC subsequent to stimulation in vivo within 4 hours - making this enzyme a useful intracellular marker for understanding the relationship between agonists and target tissue response. The ODC activity of lymphoid tissues appears to relate to a functional response to the immune system.
In a typical test method KFM male rats (150 - 175 g) were treated with the compound of the invention one day prior to the administration of Complete Freund's adjuvant in analogous manner to that described above. Administration of the compound was repeated once time per day afterwards. Two days later the animals were decapitated, the tissues removed and frozen in liquid nitrogen. The ODC activities (pmol/30 min./mg protein) are measured. The ODC activity was determined by measuring the liberation of 14CO₂ from L-(1-14C)-ornithine as described by Snyder et al Proc.Natl.Acad.Sci.60:1420, 1968.

[10] = test system: splenic lymphocytes forming lytic antibodies to the SRBC; test: Antibody producing cell development in the mouse (PFC test), plaque forming cells to SRBC; type: in vivo
Method: These methods permit the quantitation of the number of splenic lymphocytes forming lytic antibodies to the SRBC and the distinction between IgM and IgG producing cells.
The intravenous injection of SRBC (5 x 10⁷) in 0.2 ml i.v. served as the primary immunization antigen source in the mouse studies. The mice in these studies were female C57 black of ca 20 grams body weight. All animals were pretreated with the respective compounds for one day prior to the SRBC treatment and daily treated thereafter at 11.00 h for a total of 6 days. The spleens were removed for the determination of PFC numbers to the SRBC antigen.
The spleen cells were suspended in Hepes-buffered Balanced Salt Solution (HBSS), washed once, and resuspended in a volume adjusted according to the expected number of plaque forming cells. The direct quantitiation of IgM-PFC was performed by plaquing 0.1 ml of the diluted splenic cells with 0.025 ml of SRBC (30%), 0.3 ml Agar (0.5% in HBSS), and 0.025 ml complement (guinea pig serum) and plated on Petri dishes. An indirect method of IgG-PFC quantitation was performed with a monoclonal antibody to the IgM (1:4 dilution) plus an anti-gama polyspecific antiserum (1:800) to permit complement fixation. The splenic lymphocytes from each mouse spleen were plated to quantitate IgM- and IgG-PFC in duplicate. All plates were incubated for 4 hours at 37°C and then stored overnight in humidified chambers at 4°C. Plaques were counted by hand with the use of a plaque counter.

With `Cc1[nH]c2cccc3c2c1C[C@@H]1[C@@H]3C[C@H](NC(=O)C(C)(C)C)CN1C` [Compound E, (5R,8S,10R)-2,6-dimethyl-8α-pivaloylamino-ergoline] the NOAEL at 672 h ([1]; over 4 weeks, Beagle dogs, read-out: Well tolerated dose) was at least 3 mg/kg/day, the “dpm x 10^3/10 cells ± SD” value ([2]; 3H thymidine incorporation) was 103218 ± 21497 dpm x 10^3/10 cells and the inhibition at 5 mg/kg ([2]; Mus musculus, Lymphocyte, sc, 120 h, read-out: inhibited the response) was about 21%. The Weight lymph node ([3]; 5 mg/kg/day, control ca 55 mg) was “ca 39 mg” and the “Percentage Difference” value ([3]; 5 mg/kg/day, versus control ca 55 mg) was -41%.

`CCCN1C[C@@H](NS(=O)(=O)N(CC)CC)C[C@@H]2c3cccc4[nH]cc(c34)C[C@H]21` [Compound C, 6-n-propyl-8α-(N,N,-diethylsulphamoylamino)-ergoline-I] showed an ED50 [4] of 0.001 mg/kg, a Change from control ([5]; 0.05 mg/kg s.c. once daily) of -71% and a Change from control ([5]; 0.5 mg/kg s.c. once daily) of -50%. The Change from control ([5]; 5 mg/kg s.c. once daily) was -20%, the LD50 at 168 h ([6]; iv, over 7 days, read-out: acute LD₅₀ (mouse) i.v.) was 45 mg/kg and the LD50 at 336 h ([6]; po, over 14 days, read-out: acute LD₅₀ (mouse) p.o.) was 69 mg/kg. For the same compound, the NOAEL at 672 h [7] was 0.19 mg/kg/day, the “pD₂ [log EC₅₀]” value [8] was 6.9 and the “ODC activities, Adrenal Medulla” value ([9]; 0.01 mg/kg) was 17.10 pmol/30 min./mg protein. The “ODC activities, Anterior Pituitary” value ([9]; 0.01 mg/kg) was 32.60 pmol/30 min./mg protein, the “ODC activities, Bone Marrow” value ([9]; 0.01 mg/kg) was 17.40 pmol/30 min./mg protein and the “ODC activities, Lymph Nodes” value ([9]; 0.01 mg/kg) was 43.10 pmol/30 min./mg protein. For the same compound, the “ODC activities, Spleen” value ([9]; 0.01 mg/kg) was 12.14 pmol/30 min./mg protein, the “ODC activities, Thymus” value ([9]; 0.01 mg/kg) was 98.80 pmol/30 min./mg protein and the “ODC activities, Adrenal Medulla” value ([9]; 0.1 mg/kg) was 180.0 pmol/30 min./mg protein. For the same compound, the “ODC activities, Anterior Pituitary” value ([9]; 0.1 mg/kg) was 33.70 pmol/30 min./mg protein, the “ODC activities, Bone Marrow” value ([9]; 0.1 mg/kg) was 45.80 pmol/30 min./mg protein and the “ODC activities, Lymph Nodes” value ([9]; 0.1 mg/kg) was 107.30 pmol/30 min./mg protein. For the same compound, the “ODC activities, Spleen” value ([9]; 0.1 mg/kg) was 34.62 pmol/30 min./mg protein, the “ODC activities, Thymus” value ([9]; 0.1 mg/kg) was 171.40 pmol/30 min./mg protein and the “ODC activities, Adrenal Medulla” value ([9]; 0.5 mg/kg) was 95.0 pmol/30 min./mg protein. For the same compound, the “ODC activities, Anterior Pituitary” value ([9]; 0.5 mg/kg) was 41.20 pmol/30 min./mg protein, the “ODC activities, Bone Marrow” value ([9]; 0.5 mg/kg) was 43.40 pmol/30 min./mg protein and the “ODC activities, Lymph Nodes” value ([9]; 0.5 mg/kg) was 103.90 pmol/30 min./mg protein. For the same compound, the “ODC activities, Spleen” value ([9]; 0.5 mg/kg) was 37.96 pmol/30 min./mg protein, the “ODC activities, Thymus” value ([9]; 0.5 mg/kg) was 177.0 pmol/30 min./mg protein and the NOAEL at 672 h ([1]; no toxic effect level, 4 weeks, read-out: NTEL (4 weeks) dogs) was 0.2 mg/kg/day. For the same compound, the percent change from control at 0.01 mg/kg/day ([10]; Mus musculus, Splenic lymphocyte, po, Test B, 0.01 mg/kg/day p.o., read-out: IgM % of control) was -49%, the percent change from control at 0.1 mg/kg/day ([10]; Mus musculus, Splenic lymphocyte, po, Test B, 0.1 mg/kg/day p.o., read-out: IgM % of control) was -26% and the percent change from control at 1 mg/kg/day ([10]; Mus musculus, Splenic lymphocyte, po, Test B, 1 mg/kg/day p.o., read-out: IgM % of control) was -1%. The “IgM (PFC x 10^3 per spleen)” value ([10]; Test B, 0.01 mg/kg/day p.o.) was 167.2 PFC x 10^3 per spleen, the “IgM (PFC x 10^3 per spleen)” value ([10]; Test B, 0.1 mg/kg/day p.o.) was 244.4 PFC x 10^3 per spleen and the “IgM (PFC x 10^3 per spleen)” value ([10]; Test B, 1 mg/kg/day p.o.) was 327.0 PFC x 10^3 per spleen. The “reduction of IgM titre” value ([10]; combination: Cyclosporine 60 mg/kg/day p.o. and Compound C 0.1 mg/kg/day p.o.) was 63%, the Weight lymph node ([3]; 0.001 mg/kg/day, control ca 33 mg) was 24 mg and the “Percentage Difference” value ([3]; 0.001 mg/kg/day, versus control ca 33 mg) was -28%. The Weight lymph node ([3]; 0.01 mg/kg/day, control ca 33 mg) was 19 mg, the “Percentage Difference” value ([3]; 0.01 mg/kg/day, versus control ca 33 mg) was -42% and the Weight lymph node ([3]; 0.1 mg/kg/day, control ca 33 mg) was 18 mg. For the same compound, the “Percentage Difference” value ([3]; 0.1 mg/kg/day, versus control ca 33 mg) was -45%.
